Experimental data published in patent US11753407B2, “Compounds for treating spinal muscular atrophy” (PTC Therapeutics, Inc., priority 2012, dated 2023).

Assays:
[1] = test system: SMN2 minigene mRNA (SMN2-A minigene) in HEK293H cells; test: SMN2 minigene mRNA splicing RT-qPCR assay in cultured cells; assay type: cell-based, human; settings: Homo sapiens, HEK293-H; concentration increasing full length SMN2 mRNA 1.5-fold relative to vehicle-treated cells; HEK293H cells with SMN2-A minigene, 24 hours, 7-point concentration data; read-out: EC1.5x for production of full length SMN2 mRNA
Method in brief: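 EC1.5× = concentration raising full-length SMN2 minigene mRNA 1.5-fold over vehicle, from 7-point curves in duplicate. Stably transfected HEK293H cells exposed 24 h at 37 °C; lysates assayed by multiplex RT-qPCR, minigene FL signal normalized to GAPDH via modified ΔΔCt.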

[2] = test system: Smn protein in SMA patient fibroblast cells (GM03813); test: Smn protein assay in cultured cells (SMN HTRF); assay type: cell-based, human; settings: SMA patient fibroblast cells, 48 hours; for maximum fold (Fold) increase of Smn protein: 7-point concentration data, fold relative to vehicle control; for EC1.5x for Smn protein expression: 7-point concentration curve, SMN HTRF, concentration producing 1.5 times Smn protein vs DMSO vehicle control
Method in brief: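 Smn protein quantified by HTRF with anti-SMN d2/kryptate pair, 665/620 nm ratio blank-corrected, in RIPA lysates of GM03813 fibroblasts after 48 h compound exposure (7 concentrations, 3.16-fold steps, triplicates). Values: concentration producing 1.5× vehicle Smn level, and maximal fold increase.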

SMILES | EC (1.5-fold increase) [1] [µM] | maximum fold (Fold) increase of Smn protein [2] | EC1.5x for Smn protein expression [2]
COc1ccc(-c2cc(=O)n3cc(N4CCNC[C@H]4C)ccc3n2)cc1OC [Compound 321, 2-(3,4-dimethoxyphenyl)-7-[(2R)-2-methylpiperazin-1-yl]-4H-pyrido[1,2-a]pyrimidin-4-one] | 1 to 3 | *** (a fold increase between >1.35 and ≤1.5 is indicated by three stars (***)) | 
Cc1nc2ccc(-c3cc(=O)n4cc(N5CCN(C)CC5)ccc4c3)cc2o1 [Compound 323, 2-(2-methyl-1,3-benzoxazol-6-yl)-7-(4-methylpiperazin-1-yl)-4H-quinolizin-4-one] | 0.1 to 0.3 | *** (a fold increase between >1.35 and ≤1.5 is indicated by three stars (***)) | ** (an EC1.5× between >1 μM and ≤3 μM is indicated by two stars (**))
Cc1cn2nc(-c3cc(=O)n4cc(N5CCN[C@H](C)C5)ccc4n3)cc2c(C)n1 [Compound 335, 2-(4,6-dimethylpyrazolo[1,5-a]pyrazin-2-yl)-7-[(3R)-3-methylpiperazin-1-yl]-4H-pyrido[1,2-a]pyrimidin-4-one] | < 0.1 | ***** (a fold increase >1.65 is indicated by five stars (*****)) | **** (an EC1.5x≤0.3 μM is indicated by four stars (****))
CCN1CCN(c2ccc3nc(-c4cc5c(C)nc(C)cn5n4)cc(=O)n3c2)C[C@H]1C [Compound 343, 2-(4,6-dimethylpyrazolo[1,5-a]pyrazin-2-yl)-7-[(3R)-4-ethyl-3-methylpiperazin-1-yl]-4H-pyrido[1,2-a]pyrimidin-4-one] | < 0.1 | ***** (a fold increase >1.65 is indicated by five stars (*****)) | **** (an EC1.5x≤0.3 μM is indicated by four stars (****))
Cc1nc2cc(-c3cc(=O)n4cc(N5C[C@H]6CNC[C@H]6C5)ccc4n3)ccc2s1 [Compound 349, 7-[(3aR,6aS)-hexahydropyrrolo[3,4-c]pyrrol-2(1H)-yl]-2-(2-methyl-1,3-benzothiazol-5-yl)-4H-pyrido[1,2-a]pyrimidin-4-one] | < 0.1 | *** (a fold increase between >1.35 and ≤1.5 is indicated by three stars (***)) | ** (an EC1.5× between >1 μM and ≤3 μM is indicated by two stars (**))
Cc1cn2nc(-c3cc(=O)n4cc(C5=CCN(C6CC6)CC5)ccc4n3)cc2c(C)n1 [Compound 354, 7-(1-cyclopropyl-1,2,3,6-tetrahydropyridin-4-yl)-2-(4,6-dimethylpyrazolo[1,5-a]pyrazin-2-yl)-4H-pyrido[1,2-a]pyrimidin-4-one] | < 0.1 | **** (a fold increase between >1.5 and ≤1.65 is indicated by four stars (****)) | *** (an EC1.5× between >0.3 μM and ≤1 μM is indicated by three stars (***))
Cc1cn2nc(-c3cc(=O)n4cc(C5=CCN(C6COC6)CC5)ccc4n3)cc2c(C)n1 [Compound 357, 2-(4,6-dimethylpyrazolo[1,5-a]pyrazin-2-yl)-7-[1-(oxetan-3-yl)-1,2,3,6-tetrahydropyridin-4-yl]-4H-pyrido[1,2-a]pyrimidin-4-one] | 0.1 to 0.3 | **** (a fold increase between >1.5 and ≤1.65 is indicated by four stars (****)) | *** (an EC1.5× between >0.3 μM and ≤1 μM is indicated by three stars (***))
CNC1CCN(c2cc(C)c3nc(-c4ccc(OC)c(OC)c4)cc(=O)n3c2)CC1 [Compound 358, 2-(3,4-dimethoxyphenyl)-9-methyl-7-[4-(methylamino)piperidin-1-yl]-4H-pyrido[1,2-a]pyrimidin-4-one] | < 0.1 | *** (a fold increase between >1.35 and ≤1.5 is indicated by three stars (***)) | ** (an EC1.5× between >1 μM and ≤3 μM is indicated by two stars (**))
CCNC1CCN(c2cc(C)c3nc(-c4ccc(OC)c(OC)c4)cc(=O)n3c2)CC1 [Compound 359] | < 0.1 | *** (a fold increase between >1.35 and ≤1.5 is indicated by three stars (***)) | ** (an EC1.5× between >1 μM and ≤3 μM is indicated by two stars (**))
COc1ccc(-c2cc(=O)n3cc(N4CCC(NC(C)C)CC4)ccc3n2)cc1OC [Compound 361, 2-(3,4-dimethoxyphenyl)-7-[4-(propan-2-ylamino)piperidin-1-yl]-4H-pyrido[1,2-a]pyrimidin-4-one] | 0.1 to 0.3 | *** (a fold increase between >1.35 and ≤1.5 is indicated by three stars (***)) | 
Cc1cn2cc(-c3ccc4nc(C5=CCNCC5)cc(=O)n4c3)cc(F)c2n1 [Compound 372, 7-(8-fluoro-2-methylimidazo[1,2-a]pyridin-6-yl)-2-(1,2,3,6-tetrahydropyridin-4-yl)-4H-pyrido[1,2-a]pyrimidin-4-one] | < 0.1 | ***** (a fold increase >1.65 is indicated by five stars (*****)) | **** (an EC1.5x≤0.3 μM is indicated by four stars (****))
CCN1CC=C(c2cc(C)c3nc(-c4ccc(OC)c(OC)c4)cc(=O)n3c2)CC1 [Compound 388, 2-(3,4-dimethoxyphenyl)-7-(1-ethyl-1,2,3,6-tetrahydropyridin-4-yl)-9-methyl-4H-pyrido[1,2-a]pyrimidin-4-one] | < 0.1 | *** (a fold increase between >1.35 and ≤1.5 is indicated by three stars (***)) | 
COc1ccc(-c2cc(=O)n3cc(N4CCN5CCC[C@@H]5C4)cc(C)c3n2)cc1OC [Compound 414, 2-(3,4-dimethoxyphenyl)-7-[(8aR)-hexahydropyrrolo[1,2-a]pyrazin-2(1H)-yl]-9-methyl-4H-pyrido[1,2-a]pyrimidin-4-one] | < 0.1 | ***** (a fold increase >1.65 is indicated by five stars (*****)) | *** (an EC1.5× between >0.3 μM and ≤1 μM is indicated by three stars (***))
Cc1nc2ccc(-c3cc(=O)n4cc(C5=CCNCC5)ncc4n3)cc2o1.Cl [Compound 421, 2-(2-methyl-1,3-benzoxazol-6-yl)-7-(1,2,3,6-tetrahydropyridin-4-yl)-4H-pyrazino[1,2-a]pyrimidin-4-one hydrochloride (1:1)] | < 0.1 | *** (a fold increase between >1.35 and ≤1.5 is indicated by three stars (***)) | 
Cc1cn2nc(-c3cc(=O)n4cc(C5CCNCC5)ccc4n3)cc2c(C)n1 [Compound 452, 2-(4,6-dimethylpyrazolo[1,5-a]pyrazin-2-yl)-7-(piperidin-4-yl)-4H-pyrido[1,2-a]pyrimidin-4-one] | < 0.1 | ***** (a fold increase >1.65 is indicated by five stars (*****)) | **** (an EC1.5x≤0.3 μM is indicated by four stars (****))
Cn1ncc2cc(-c3cc(=O)n4cc(C5=CCN(CCO)CC5)ccc4n3)ccc21 [Compound 471, 7-[1-(2-hydroxyethyl)-1,2,3,6-tetrahydropyridin-4-yl]-2-(1-methyl-1H-indazol-5-yl)-4H-pyrido[1,2-a]pyrimidin-4-one] | < 0.1 | ***** (a fold increase >1.65 is indicated by five stars (*****)) | **** (an EC1.5x≤0.3 μM is indicated by four stars (****))
Cc1cn2nc(-c3cc(=O)n4cc(C5=CCN(C)CC5)cc(C)c4n3)cc2c(C)n1 [Compound 481, 2-(4,6-dimethylpyrazolo[1,5-a]pyrazin-2-yl)-9-methyl-7-(1-methyl-1,2,3,6-tetrahydropyridin-4-yl)-4H-pyrido[1,2-a]pyrimidin-4-one] | < 0.1 | **** (a fold increase between >1.5 and ≤1.65 is indicated by four stars (****)) | **** (an EC1.5x≤0.3 μM is indicated by four stars (****))
CCN1CC=C(c2cc(C)c3nc(-c4cc5c(C)nc(C)cn5n4)cc(=O)n3c2)CC1 [Compound 482, 2-(4,6-dimethylpyrazolo[1,5-a]pyrazin-2-yl)-7-(1-ethyl-1,2,3,6-tetrahydropyridin-4-yl)-9-methyl-4H-pyrido[1,2-a]pyrimidin-4-one] | < 0.1 | *** (a fold increase between >1.35 and ≤1.5 is indicated by three stars (***)) | * (An EC1.5× for Smn protein expression between >3 μM and ≤10 μM is indicated by one star (*))
Cc1cn2nc(-c3cc(=O)n4cc(C5=CCN(C6CC6)CC5)cc(C)c4n3)cc2c(C)n1 [Compound 483, 7-(1-cyclopropyl-1,2,3,6-tetrahydropyridin-4-yl)-2-(4,6-dimethylpyrazolo[1,5-a]pyrazin-2-yl)-9-methyl-4H-pyrido[1,2-a]pyrimidin-4-one] | < 0.1 | ** (a fold increase between >1.2 and ≤1.35 is indicated by two stars (**)) | 
CCN1CC=C(c2ccc3nc(-c4cc5cnc(C)cn5n4)cc(=O)n3c2)CC1 [Compound 485, 7-(1-ethyl-1,2,3,6-tetrahydropyridin-4-yl)-2-(6-methylpyrazolo[1,5-a]pyrazin-2-yl)-4H-pyrido[1,2-a]pyrimidin-4-one] | < 0.1 | ***** (a fold increase >1.65 is indicated by five stars (*****)) | **** (an EC1.5x≤0.3 μM is indicated by four stars (****))
